This is an account of results in patent US11345712B2, “Protein-targeting compounds and pharmaceutical compositions thereof, and their therapeutic applications” (BioTheryX, Inc., priority 2019, dated 2022).

Each structure is given as a SMILES string.

This assay concerns MOLM-13 cells. Kind of assay: MOLM-13 cell viability assay (CellTiter-Glo). Type of assay: cell-based. To be noted: Homo sapiens, MOLM-13, 72 h, 3 days, concentration of 1 μM, read-out: Antiproliferative Activity (inhibition, MOLM-13 cell viability). In a few lines:
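Luminescent ATP read-out (CellTiter-Glo, 10 min with shaking) after 3-day compound or DMSO exposure at 37° C, 5% CO2. Cells plated at 2,500/well in RPMI 1640 plus 10% FBS.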
For orientation: Cellular ATP, detected with luciferase, serves as a proxy for viable cell number.
Consider `CC(C)(C)c1ccc(C(=O)C(=O)NCCc2scc3c2CN(C2CCC(=O)NC2=O)C3=O)cc1` (stereo not drawn) [Compound I-41, 2-(4-(tert-butyl)phenyl)-N-(2-(5-(2,6-dioxopiperidin-3-yl)-4-oxo-5,6-dihydro-4H-thieno[3,4-c]pyrrol-1-yl)ethyl)-2-oxoacetamide], for which the cytotoxicity at 1 µM was greater than 80%.
Regarding `O=C1CCC(N2Cc3cc(CNC(=O)C(=O)c4ccc(C(F)(F)F)cc4)ccc3C2=O)C(=O)N1` (stereo not drawn) [Compound I-87, N-((2-(2,6-dioxopiperidin-3-yl)-1-oxoisoindolin-5-yl)methyl)-2-oxo-2-(4-trifluoromethylphenyl)acetamide], the cytotoxicity at 1 µM lay within 25 to 50%.
Next, `O=C(Cc1cccc(N2CCCCC2)c1)NCc1scc2c1CN(C1CCC(=O)NC1=O)C2=O` (stereo not drawn) [II-76, N-((5-(2,6-dioxopiperidin-3-yl)-4-oxo-5,6-dihydro-4H-thieno[3,4-c]pyrrol-1-yl)methyl)-2-(3-(piperidin-1-yl)phenyl)acetamide]: greater than 80%; `Cc1cc(C)c(C(=O)C(=O)NCc2ccc3c(c2)CN(C2CCC(=O)NC2=O)C3=O)c(C)c1` (stereo not drawn) [Compound I-85, N-((2-(2,6-dioxopiperidin-3-yl)-1-oxoisoindolin-5-yl)methyl)-2-oxo-2-(2,4,6-trimethylphenyl)acetamide]: 50 to 80%.
Next, `CC(C)(C)C1CCN(C(=O)C(=O)NCc2cccc3c2CN(C2CCC(=O)NC2=O)C3=O)CC1` (stereo not drawn) [Compound I-61, 2-(4-(tert-butyl)piperidin-1-yl)-N-((2-(2,6-dioxopiperidin-3-yl)-1-oxoisoindolin-4-yl)methyl)-2-oxoacetamide]: less than 25%; `O=C1CCC(N2Cc3c(CNC(=O)C(=O)c4cccc(F)c4)cccc3C2=O)C(=O)N1` (stereo not drawn) [Compound I-92, 2-(3-fluorophenyl)-N-((2-(2,6-dioxopiperidin-3-yl)-1-oxoisoindolin-4-yl)methyl)-2-oxoacetamide]: 50 to 80%.
In the case of `Cc1ccc(NCCCNCc2scc3c2CN(C2CCC(=O)NC2=O)C3=O)cc1Cl` (stereo not drawn) [II-23, 3-(1-(((3-((3-chloro-4-methylphenyl)amino)propyl)amino)methyl)-4-oxo-4H-thieno[3,4-c]pyrrol-5(6H)-yl)piperidine-2,6-dione] it was less than 25%; in that of `O=C1CCC(N2Cc3c(csc3CNC(=O)NCc3c(Cl)cccc3Cl)C2=O)C(=O)N1` (stereo not drawn) [II-37, 1-(2,6-dichlorobenzyl)-3-((5-(2,6-dioxopiperidin-3-yl)-4-oxo-5,6-dihydro-4H-thieno[3,4-c]pyrrol-1-yl)methyl)urea], greater than 80%; in that of `Cc1cc(NC(=O)NCc2cc3c(s2)C(=O)N(C2CCC(=O)NC2=O)C3)ccc1N(C)C` (stereo not drawn) [II-59, 1-(4-(dimethylamino)-3-methylphenyl)-3-((5-(2,6-dioxopiperidin-3-yl)-6-oxo-5,6-dihydro-4H-thieno[2,3-c]pyrrol-2-yl)methyl)urea], less than 25%.
With `CC(C)(C)c1ccc(C(O)C(=O)NCc2scc3c2CN(C2CCC(=O)NC2=O)C3=O)cc1` (stereo not drawn) [II-132, 2-(4-(tert-butyl)phenyl)-N-((5-(2,6-dioxopiperidin-3-yl)-4-oxo-5,6-dihydro-4H-thieno[3,4-c]pyrrol-1-yl)methyl)-2-hydroxyacetamide], the cytotoxicity at 1 µM lay in the range of 25 to 50%.
In the case of `Cc1cc(C(C)(C)C)cc(C)c1C(=O)C(=O)NCc1ccc2c(c1)CN(C1CCC(=O)NC1=O)C2=O` (stereo not drawn) [Compound I-104, 2-(4-(tert-butyl)-2,6-dimethylphenyl)-N-((2-(2,6-dioxopiperidin-3-yl)-1-oxoisoindolin-5-yl)methyl)-2-oxoacetamide] it was greater than 80%.
In the case of `O=C1CCC(N2Cc3c(CNC(=O)C(=O)c4ccc(C(F)(F)F)cc4)cccc3C2=O)C(=O)N1` (stereo not drawn) [Compound I-75, N-((2-(2,6-dioxopiperidin-3-yl)-1-oxoisoindolin-4-yl)methyl)-2-oxo-2-(4-(trifluoromethyl)phenyl)acetamide] it was 25 to 50%.
In the case of `CN(C)Cc1cccc(NC(=O)NCc2cc3c(s2)C(=O)N(C2CCC(=O)NC2=O)C3)c1` (stereo not drawn) [II-53, 1-(3-((dimethylamino)methyl)phenyl)-3-((5-(2,6-dioxopiperidin-3-yl)-6-oxo-5,6-dihydro-4H-thieno[2,3-c]pyrrol-2-yl)methyl)urea] it was less than 25%; in that of `CCc1ccc(NC(=O)NCc2cc3c(s2)C(=O)N(C2CCC(=O)NC2=O)C3)cc1N(C)C` (stereo not drawn) [II-96, 1-(3-(dimethylamino)-4-ethylphenyl)-3-((5-(2,6-dioxopiperidin-3-yl)-6-oxo-5,6-dihydro-4H-thieno[2,3-c]pyrrol-2-yl)methyl)urea], greater than 80%; in that of `CN(C)c1ccc(CC(=O)NCc2scc3c2CN(C2CCC(=O)NC2=O)C3=O)cc1` (stereo not drawn) [II-61, 2-(4-(dimethylamino)phenyl)-N-((5-(2,6-dioxopiperidin-3-yl)-4-oxo-5,6-dihydro-4H-thieno[3,4-c]pyrrol-1-yl)methyl)acetamide], less than 25%.
Consider `CN(C)c1cc(NC(=O)NCc2cc3c(s2)C(=O)N(C2CCC(=O)NC2=O)C3)ccc1F` (stereo not drawn) [II-45, 1-(3-(dimethylamino)-4-fluorophenyl)-3-((5-(2,6-dioxopiperidin-3-yl)-6-oxo-5,6-dihydro-4H-thieno[2,3-c]pyrrol-2-yl)methyl)urea], for which the cytotoxicity at 1 µM was greater than 80%.
Next, `CC(C)(C)c1ccc(C(=O)C(=O)NCc2c(F)ccc3c2CN(C2CCC(=O)NC2=O)C3=O)cc1` (stereo not drawn) [Compound I-50, 2-(4-(tert-butyl)phenyl)-N-((2-(2,6-dioxopiperidin-3-yl)-5-fluoro-1-oxoisoindolin-4-yl)methyl)-2-oxoacetamide]: less than 25%; `COc1ccc(C(=O)C(=O)NCc2ccc3c(c2)CN(C2CCC(=O)NC2=O)C3=O)cc1` (stereo not drawn) [Compound I-89, N-((2-(2,6-dioxopiperidin-3-yl)-1-oxoisoindolin-5-yl)methyl)-2-(4-methoxyphenyl)-2-oxoacetamide]: greater than 80%; `Cc1cc(NC(=O)NCc2cc3c(s2)C(=O)N(C2CCC(=O)NC2=O)C3)ccc1N1CCCC1` (stereo not drawn) [II-27, 1-((5-(2,6-dioxopiperidin-3-yl)-6-oxo-5,6-dihydro-4H-thieno[2,3-c]pyrrol-2-yl)methyl)-3-(3-methyl-4-(pyrrolidin-1-yl)phenyl)urea]: less than 25%.
Next, `O=C1CCC(N2Cc3c(csc3CNC(=O)C(=O)c3ccc(CN4CCOCC4)cc3)C2=O)C(=O)N1` (stereo not drawn) [Compound I-26, 2-(4-(morpholinomethyl)phenyl)-N-((5-(2,6-dioxopiperidin-3-yl)-4-oxo-5,6-dihydro-4H-thieno[3,4-c]pyrrol-1-yl)methyl)-2-oxoacetamide]: less than 25%; `Cc1ccc(CC(=O)NCc2cc3c(s2)CN(C2CCC(=O)NC2=O)C3=O)cc1Cl` (stereo not drawn) [II-79, 2-(3-chloro-4-methylphenyl)-N-((5-(2,6-dioxopiperidin-3-yl)-4-oxo-5,6-dihydro-4H-thieno[2,3-c]pyrrol-2-yl)methyl)acetamide]: less than 25%.
In the case of `Cc1cc(CCCC(=O)NCc2scc3c2CN(C2CCC(=O)NC2=O)C3=O)ccc1N(C)C` (stereo not drawn) [II-115, 4-(4-(dimethylamino)-3-methylphenyl)-N-((5-(2,6-dioxopiperidin-3-yl)-4-oxo-5,6-dihydro-4H-thieno[3,4-c]pyrrol-1-yl)methyl)butanamide] it was less than 25%; in that of `O=C1CCC(N2Cc3c(csc3CNC(=O)C(=O)c3ccc(C(F)(F)F)cc3)C2=O)C(=O)N1` (stereo not drawn) [Compound I-23, 2-(4-trifluoromethylphenyl)-N-((5-(2,6-dioxopiperidin-3-yl)-4-oxo-5,6-dihydro-4H-thieno[3,4-c]pyrrol-1-yl)methyl)-2-oxoacetamide], less than 25%; in that of `CC(C)(C)c1cccc(C(=O)C(=O)NCc2cccc3c2CN(C2CCC(=O)NC2=O)C3=O)c1` (stereo not drawn) [Compound I-46, 2-(3-(tert-butyl)phenyl)-N-((2-(2,6-dioxopiperidin-3-yl)-1-oxoisoindolin-4-yl)methyl)-2-oxoacetamide], 25 to 50%.
For `Cc1ccc(NC(=O)NCc2cc3c(s2)C(=O)N(C2CCC(=O)NC2=O)C3=O)cc1N(C)C` (stereo not drawn) [II-114, 1-(3-(dimethylamino)-4-methylphenyl)-3-((5-(2,6-dioxopiperidin-3-yl)-4,6-dioxo-5,6-dihydro-4H-thieno[2,3-c]pyrrol-2-yl)methyl)urea], the cytotoxicity at 1 µM was in the range of 25 to 50%.
Next, `Cc1ccc(NC(=O)NCc2cc3c(s2)C(=O)N(C2CCC(=O)NC2=O)C3)cc1N1CCCC1` (stereo not drawn) [II-98, 1-((5-(2,6-dioxopiperidin-3-yl)-6-oxo-5,6-dihydro-4H-thieno[2,3-c]pyrrol-2-yl)methyl)-3-(4-methyl-3-(pyrrolidin-1-yl)phenyl)urea]: greater than 80%; `CCN(C)c1cc(NC(=O)NCc2cc3c(s2)C(=O)N(C2CCC(=O)NC2=O)C3)ccc1C` (stereo not drawn) [II-100, 1-((5-(2,6-dioxopiperidin-3-yl)-6-oxo-5,6-dihydro-4H-thieno[2,3-c]pyrrol-2-yl)methyl)-3-(3-(ethyl(methyl)amino)-4-methylphenyl)urea]: greater than 80%; `Cc1ccc(NCCCNCc2cc3c(s2)C(=O)N(C2CCC(=O)NC2=O)C3)cc1Cl` (stereo not drawn) [II-65, 3-(2-(((3-((3-chloro-4-methylphenyl)amino)propyl)amino)methyl)-6-oxo-4,6-dihydro-5H-thieno[2,3-c]pyrrol-5-yl)piperidine-2,6-dione]: less than 25%.
Next, `Cc1ccc(C(C(=O)NCc2scc3c2CN(C2CCC(=O)NC2=O)C3=O)C(C)C)cc1Cl` (stereo not drawn) [II-95, 2-(3-chloro-4-methylphenyl)-N-((5-(2,6-dioxopiperidin-3-yl)-4-oxo-5,6-dihydro-4H-thieno[3,4-c]pyrrol-1-yl)methyl)-3-methylbutanamide]: 25 to 50%; `CN(C)CCOc1cccc(CC(=O)NCc2scc3c2CN(C2CCC(=O)NC2=O)C3=O)c1` (stereo not drawn) [II-77, 2-(3-(2-(dimethylamino)ethoxy)phenyl)-N-((5-(2,6-dioxopiperidin-3-yl)-4-oxo-5,6-dihydro-4H-thieno[3,4-c]pyrrol-1-yl)methyl)acetamide]: less than 25%.
